Reference: patent US7129379B2, “3-amino-propoxphenyl derivatives (l)” (William John Louis, Austin and Repatriation Medical Centre, priority 1996, dated 2006)

Experiments:
[1] = Duration of beta blockade after intravenous infusion in conscious rats (heart rate response to isoprenaline); type: in vivo, Sprague-Dawley rats; settings: Sprague-Dawley, rat, plasma, iv; conscious male rats, after stopping i.v. infusion; time for inhibition of isoprenaline heart rate response to fall by 50%; read-out: Estimated Plasma Half Life
Experimental: (§1) Healthy male Sprague-Dawley rats were prepared under anaesthesia with indwelling catheters in the carotid artery and jugular vein and allowed to recover for at least 24 h. On the day of the experiment, the arterial catheter was attached to a flexible swivel and then to a pressure transducer for the continuous recording of heart rate and blood pressure. The venous catheters were attached to an infusion pump for drug administration or to a syringe for bolus injections of isoprenaline ([…]). The catheters were suspended out of the animal's way and the rat was allowed to move freely in a small covered enclosure isolated from outside disturbance. When the BP and HR were stable isoprenaline boluses were given at intervals of 10 minutes until the maximum responses in HR were reproducible (±10%). The doses were repeated for at least 40 minutes and the last 5 readings were considered to constitute the baseline response. The doses were continued at the same interval throughtout the test period of a further 150 minutes. Approximately 3.5 minutes before the next dose of isoprenaline the infusion of the test compound was started, to allow for dead volume in the infusion line, and continued for a further 33.5 minutes.
(§2) Rats were used for more than one experiment if their catheters remained patent with daily flushing with heparinised saline, but at least 24 hours separated each experiment.
(§3) Thus rats with the left carotid artery and left jugular vein cannulated can be studied in the conscious state. This allows continuous recording of heart rate and blood pressure before and after intravenous infusions of beta blocking drugs in selected doses. The duration of beta blockade following cessation of an intravenous infusion of a beta blocking drug can be followed by studying the time taken for the increase in heart rate produced by a standard dose of isoprenaline to return to control values following cessation of the beta blocking drug infusion. The maximum recorded inhibition of the heart rate response to isoprenaline during the infusion of the test drug is estimated, and the pharmacodynamic half-life is the time taken for this inhibition to fall by 50% following the cessation of infusion of the drug.
(§4) The half-life of action of the compounds in the systemic circulation as determined as described above in vivo in rats is indicated in Table 3.

[2] = target: T1, β2 adrenoreceptor (guinea-pig trachea) (Cavia porcellus, UniProt Q8K4Z4); assay: Isoprenaline relaxation of carbachol-contracted isolated guinea-pig trachea (pA2); settings: isolated guinea-pig tracheal rings, carbachol 10^-6 M contraction, 37° C.; for Kb: read-out: Guinea Pig, pA2 Trachea, B2 (converted)
T1 construct: five rings 1–2 mm in width are cut from the trachea; from tissue; host or cells: isolated guinea-pig tracheal rings (organ bath)
From the text: (§5) Tissue preparation: The animals are killed by a rapid blow to the head followed by cervical dislocation. The chest is opened and the heart and trachea removed and placed in carbonated Krebs-Ringer-Bicarbonate solution (Krebs). Blood is carefully massaged from the chambers of the heart (see L. H. Tung, G. P. Jackman, B. Campbell, S. Louis, D. Iakovidis & W J Louis, J. Cardiovasc. Pharmacol, 21, (2), 484–488, 1993).
All extraneous tissue is dissected away and five rings 1–2 mm in width are cut from the trachea and mounted in sequence on loose loops. The rings are suspended from an isometric transducer set at a resting force of 1.0 g. The rings are then incubated in an organ bath at 37° C. in oxygenated (5% Carbogen) Krebs with 3 changes of Krebs every 10 min for 50 min. Carbachol 10^−6 M is then added to the bath to induce a contraction. Once the contractile force is stable, relaxation is induced by addition of increasing doses of isoprenaline (10^−8 to 10^−5 M) to produce the control dose-response curve. The tissue is then washed in three changes of Krebs every 10 min for 50 min before addition of the drug. After 10 minutes incubation carbachol is added once more and a fresh dose-response to isoprenaline measured. After a further wash of 50 min the control curve is repeated.
(§6) The data is used to calculate the pA2 values against atria and trachea (see Mackay, J. Pharm. Pharmacol., 30, 312–313, 1978). […] The ratio of the values indicates the selectivity of each compound.

[3] = system: β1 adrenoreceptor (guinea-pig atria); assay: Isoprenaline dose-response in isolated guinea-pig atria (pA2); settings: β1 (atria) versus β2 (trachea), from the pA2 values
From the text: as §5
(§7) All extraneous tissue is carefully dissected from the heart, and the atria is dissected from the ventricles. A suture with a loop is tied to each atrium and used to suspend the tissue from an organ bath rod. The other loop is attached to a force transducer loaded with 1 g force. The atria are then maintained in the bath with oxygenated (5% Carbogen) Krebs at 37° C. with changes of Krebs at 10 minute intervals for 50 min. Isoprenaline dose response curves are then measured by addition of isoprenaline in increasing doses from 10^−11 M until a plateau in the response is observed (ca 10^−5.5 M). Doses are increased at two minute intervals and maximum force of contraction and heart rate are recorded. At the end of the dose response curve, the organ bath is flushed with fresh Krebs and washed three times every 10 minutes for 50 minutes. The dose of test drug is then added to the organ bath and allowed to equilibrate for 10 minutes. The isoprenaline does-response curve is then repeated. After washing the atria with Krebs for a further 50 minutes as before, the control does-response curve is repeated in the absence of drug.
as §6

[4] = target: T2, β1 adrenoreceptor (guinea-pig atria) (Cavia porcellus, UniProt H0W3H1); assay: as above; settings: isolated guinea-pig atria, antagonism of isoprenaline, 37° C.; for Kb: read-out: Guinea Pig, pA2 Atria, B1 (converted)
T2 construct: the atria is dissected from the ventricles; from tissue; host or cells: isolated guinea-pig atria (organ bath)
From the text: as §5, §7, §6

[5] = system: heart rate response to isoprenaline; assay: Duration of beta blockade after intravenous infusion in conscious rats (heart rate response to isoprenaline); type: in vivo, Sprague-Dawley rats; settings: conscious male rats, after stopping i.v. infusion; time for inhibition of isoprenaline heart rate response to fall by 50%
Experimental: as §1, §2, §3, §4

T2 sequence (H0W3H1 1-470): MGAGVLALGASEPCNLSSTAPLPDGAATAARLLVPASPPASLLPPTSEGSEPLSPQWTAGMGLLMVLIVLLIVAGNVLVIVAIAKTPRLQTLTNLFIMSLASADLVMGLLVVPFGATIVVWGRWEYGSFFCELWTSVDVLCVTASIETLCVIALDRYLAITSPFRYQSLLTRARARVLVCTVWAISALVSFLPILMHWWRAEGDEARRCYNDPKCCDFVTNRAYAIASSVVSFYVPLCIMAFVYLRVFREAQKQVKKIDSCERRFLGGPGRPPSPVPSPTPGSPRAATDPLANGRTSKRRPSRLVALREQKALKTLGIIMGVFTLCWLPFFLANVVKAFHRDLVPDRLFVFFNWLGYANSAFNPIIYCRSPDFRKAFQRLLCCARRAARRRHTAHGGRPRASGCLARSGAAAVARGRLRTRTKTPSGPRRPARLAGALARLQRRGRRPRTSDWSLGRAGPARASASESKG
T1 sequence (Q8K4Z4 whole entry): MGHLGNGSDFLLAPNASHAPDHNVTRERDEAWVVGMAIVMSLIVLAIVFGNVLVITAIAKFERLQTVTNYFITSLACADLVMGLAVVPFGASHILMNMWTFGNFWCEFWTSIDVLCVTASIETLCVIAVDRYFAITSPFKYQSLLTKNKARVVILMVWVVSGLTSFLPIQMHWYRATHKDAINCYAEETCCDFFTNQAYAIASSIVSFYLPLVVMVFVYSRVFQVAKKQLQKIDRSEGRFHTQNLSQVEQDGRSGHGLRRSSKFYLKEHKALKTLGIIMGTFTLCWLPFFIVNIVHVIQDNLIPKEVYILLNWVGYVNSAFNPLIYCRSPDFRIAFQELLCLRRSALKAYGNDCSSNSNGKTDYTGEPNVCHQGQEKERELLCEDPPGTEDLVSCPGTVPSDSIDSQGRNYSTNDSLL

Kb [2] [nM]	melting point [°C]	Kb [4] [nM]	SMILES	half-life [1] [min]	Selectivity [3]	Estimated Plasma Half Life [5] [min]	Guinea Pig, pA2 Trachea, B2 [2]	Guinea Pig, pA2 Atria, B1 [4]
39800	69 to 71	39.8	COc1ccc(OCCNCC(O)COc2ccc(OCCOCC(C)C)cc2C#N)cc1 (racemic) [Example 2, 1-(2-cyano-4-(2-(2-methylpropoxy)ethoxy)phenoxy)-2-hydroxy-3-(2-(4-methoxyphenoxy)ethylamino)propane]	~17	1000			
39800	84 to 86	50.1	COc1ccc(CCNCC(O)COc2ccc(OCCOCC3CC3)cc2C#N)cc1OC (racemic) [Example 4, 1-(2-cyano-4-(2-cyclopropylmethoxyethoxy)phenoxy)-2-hydroxy-3-(2-(3,4-dimethoxyphenyl)ethylamino)propane]	~15	794			
50100	113 to 115	100	COCCOc1ccc(OCC(O)CNCCOc2ccc(OC)cc2)cc1 (racemic) [Example 5, 1-(4-(2-methoxyethoxy)phenoxy)-2-hydroxy-3-(2-(4-methoxyphenoxy)ethylamino)propane]	10 to 20	501			
> 31600	140 to 143	63.1	CCOCCOc1ccc(OCC(O)CNCCc2ccc(OC)c(OC)c2)cc1 (racemic) [Example 7, 1-(4-(2-ethoxyethoxy)phenoxy)-2-hydroxy-3-(2-(3,4-dimethoxyphenyl)ethylamino)propane]	~10	>501			
			CCOCCOc1ccc(OC[C@@H](O)CNCCc2ccc(OC)c(OC)c2)cc1 [Example 1, S(−)-1-(4-(2-ethoxyethoxy)phenoxy)-2-hydroxy-3-(2-(3,4-dimethoxyphenyl)ethylamino)propane]		2512	10 to 20	4.3	7.7
